Data from patent US10626089B2, “Quinoline derivative in crystal form” (GB001, Inc., priority 2016, dated 2020).
Where a name gives a salt, the structure may show the parent alone.

Tests used:
[1] = Storage stability: total related substances by liquid chromatography before and after storage; type: physicochemical; conditions: for total amount of related substances (produced impurities), at the start: before storage; for total amount of related substances (produced impurities), at the start / total amount of related substances (produced impurities), after 3 months: liquid chromatography, related substances measured to ≥0.03%; for total amount of related substances (produced impurities), after 3 months: tightly sealed glass vessel, relative humidity 75° C.
Description: The storage stability of the compound (I) crystal form A obtained in example 1 was compared with that of the free-form crystals obtained in comparative example 1.
The respective crystals were introduced into a glass vessel which was then tightly sealed and stored at 40° C., relative humidity […] for 3 months; the amount of related substances before and after storage was measured by liquid chromatography; the results are shown in Table 1. The values are the total amount of related substances, which are produced impurities, as measured to ≥0.03%.

[2] = Retention of water of crystallization on heated drying under reduced pressure; type: physicochemical; conditions: 80° C.
Description: Inventive crystal form B of compound (I) is a hydrate crystal form, and can be obtained using a combination of solvents that includes water. Alcohols such as ethanol and 2-propanol are preferred as the solvent used in combination with water. For example, the crystal form can be obtained by dissolving compound (I) in a mixed solvent containing ethanol and water at a ratio of 1:1 (80×volume), concentrating and then drying. The drying can comprise natural drying, drying under reduced pressure, heated drying, or heated drying under reduced pressure.

Structure (SMILES): CCc1nc2c(Cl)ccc(OCC(=O)O)c2c(OC(F)F)c1Cc1ccc(Cl)cc1 (as salt: salt) [Free-form crystals, [8-chloro-3-(4-chlorobenzyl)-4-difluoromethoxy-2-ethylquinolin-5-yloxy]acetic Acid]
- melting point: 141 °C

Structure (SMILES): CCc1nc2c(Cl)ccc(OCC(=O)O)c2c(OC(F)F)c1Cc1ccc(Cl)cc1.NCCCC[C@H](N)C(=O)O [Compound (I) crystal form A, [8-chloro-3-(4-chlorobenzyl)-4-difluoro-methoxy-2-ethylquinolin-5-yloxy]acetic Acid L-Lysine Salt in Crystal Form A]
- storage stability compared with the free-form crystals ([1]; 40° C., relative humidity 75, 3 months): better storage stability than the free-form crystals
- total amount of related substances (produced impurities), at the start [1]: 0.53%
- total amount of related substances (produced impurities), after 3 months ([1]; 40° C.): 0.59%

Structure (SMILES): CCc1nc2c(Cl)ccc(OCC(=O)O)c2c(OC(F)F)c1Cc1ccc(Cl)cc1 [Free-form crystals, [8-chloro-3-(4-chlorobenzyl)-4-difluoromethoxy-2-ethylquinolin-5-yloxy]acetic Acid, reference compound]
- total amount of related substances (produced impurities), at the start [1]: 1.37%
- total amount of related substances (produced impurities), after 3 months ([1]; 40° C.): 1.95%

Structure (SMILES): CCc1nc2c(Cl)ccc(OCC(=O)O)c2c(OC(F)F)c1Cc1ccc(Cl)cc1.NCCCC[C@H](N)C(=O)O [crystal form B of compound (I), [8-chloro-3-(4-chlorobenzyl)-4-difluoro-methoxy-2-ethylquinolin-5-yloxy]acetic Acid L-Lysine Salt in Crystal Form B]
- loss of water of crystallization [2]: no water of crystallization is lost even at 80 °C
